Where two headings read alike, the source gives them in different places.
How the values were obtained:
TxtE [1] = molecular target: T1, TxtE (Streptomyces scabiei, UniProt C9ZDC6); assay: biochemical; type: binding, Streptomyces scabies
TxtE [2] = molecular target: T1, TxtE; conditions: read-out: previously reported Kd; TxtE with L-tryptophan; cited from earlier work
TxtE [3] = molecular target: T1, TxtE; type: binding, Streptomyces scabies; conditions: TxtE in E. coli cell lysate 1.9 – 2.8 μM, substrate 250–500 μM, 15 min, pH 8

## N[C@@H](Cc1c[nH]c2ccccc12)C(=O)O [Substrate 1, L-tryptophan]
TxtE [1]
  Kd: 39 µM
TxtE [2]
  Kd: 44 to 60 µM
TxtE [3]
  Spectral Shift: type I
